The results in this text go back to patent US8039668B2, “Naphthalene-based inhibitors of anti-apoptotic proteins” (Burnham Institute for Medical Research, priority 2008, dated 2011).

What is called pIC50 is the IC50 on a negative log10 scale, so that one unit is a factor of ten. Usually pEC50 stands for −log10 of the EC50, conventionally taken in molar units.

Series [1] relates to BP3 human B-cell lymphoma cell line. In words: Annexin V-FITC and propidium iodide assay. In kind it is cell-based. The conditions noted are these: for pEC50: Homo sapiens, B-cell, Table 3, Annexin V-FITC and propidium iodide assay, read-out: EC50 BP3.
Series [2] deals with Mcl-1 (Homo sapiens, UniProt Q07820). Description: Competitive fluorescence polarization assay (FPA), Bim BH3 peptide. Type of series: binding. Background: Polarisation of emitted light reports the rotation of a fluorescent probe.
Mcl-1, sequence (Q07820 whole entry): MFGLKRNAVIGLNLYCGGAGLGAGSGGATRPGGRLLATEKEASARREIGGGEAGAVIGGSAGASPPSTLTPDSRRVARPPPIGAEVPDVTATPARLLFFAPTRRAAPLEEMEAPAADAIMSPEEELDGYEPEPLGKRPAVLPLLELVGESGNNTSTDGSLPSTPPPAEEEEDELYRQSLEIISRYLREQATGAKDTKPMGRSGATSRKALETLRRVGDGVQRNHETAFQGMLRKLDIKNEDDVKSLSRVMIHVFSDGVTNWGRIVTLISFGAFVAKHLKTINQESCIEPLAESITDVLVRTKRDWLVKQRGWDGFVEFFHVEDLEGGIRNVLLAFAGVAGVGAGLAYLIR
In series [3] the target is T1, BCL-XL (Homo sapiens, UniProt Q07817). Description: Competitive fluorescence polarization assay (FPA), Bak BH3 peptide. In kind it is binding. Also noted: 100 nM GST-BCL-XL ΔTM protein. The protocol:
For competitive binding assays, 100 nM GST-BCL-XL ΔTM protein was preincubated with the tested compound at varying concentrations in 47.5 μL PBS (pH=7.4) in 96-well black plates at room temperature for 10 min, then 2.5 μL of 100 nM FITC-labeled Bak BH3 peptide was added to produce a final volume of 50 μL. The wild-type and mutant Bak BH3 peptides were included in each assay plate as positive and negative controls, respectively. […] IC50 was determined by fitting the experimental data to a sigmoidal dose-response nonlinear regression model (SigmaPlot 10.0.1, Systat Software, Inc., San Jose, Calif., USA). Data reported are mean of three independent experiments±standard error (SE). […] Fluorescence polarization was measured after 10 min.
Target sequence in this assay (Q07817 1-209 limits assumed): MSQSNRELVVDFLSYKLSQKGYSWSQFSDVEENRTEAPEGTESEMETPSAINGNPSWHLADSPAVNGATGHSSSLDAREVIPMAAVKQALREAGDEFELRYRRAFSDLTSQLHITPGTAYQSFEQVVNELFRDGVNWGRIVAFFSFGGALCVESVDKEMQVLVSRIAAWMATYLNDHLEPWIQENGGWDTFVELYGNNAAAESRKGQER

The target in series [4] is Bcl-2 (Homo sapiens, UniProt P10415). Description: Competitive fluorescence polarization assay (FPA), Bim BH3 peptide. In kind it is binding.
Bcl-2, sequence (P10415 whole entry): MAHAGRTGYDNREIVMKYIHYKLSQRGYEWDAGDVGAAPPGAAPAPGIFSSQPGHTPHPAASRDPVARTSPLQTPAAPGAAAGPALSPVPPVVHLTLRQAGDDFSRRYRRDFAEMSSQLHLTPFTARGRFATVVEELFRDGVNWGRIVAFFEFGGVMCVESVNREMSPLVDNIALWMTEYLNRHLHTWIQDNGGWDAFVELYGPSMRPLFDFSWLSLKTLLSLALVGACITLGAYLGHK
Series [5] deals with T1, BCL-XL. In words: 1D 1H-NMR binding assay. The conditions noted are these: for 1D-^1H NMR: BCL-XL 25 μM, compound 200 μM. More on the design: key to 1D-^1H NMR: +++, Very Active; ++, Active; +, Mild; −, Weak. Here is the method: By observing the aliphatic region of the spectra, binding could be readily detected due to chemical shift changes in active site methyl groups of Ile, Leu, Thr, Val or Ala (region between −0.8 and 0.3 ppm). All experiments were performed with a 600 MHz spectrometer Bruker Avance 600 equipped with four rf channels and z-axis pulse-field gradients.
Target sequence in this assay (Q07817 whole entry): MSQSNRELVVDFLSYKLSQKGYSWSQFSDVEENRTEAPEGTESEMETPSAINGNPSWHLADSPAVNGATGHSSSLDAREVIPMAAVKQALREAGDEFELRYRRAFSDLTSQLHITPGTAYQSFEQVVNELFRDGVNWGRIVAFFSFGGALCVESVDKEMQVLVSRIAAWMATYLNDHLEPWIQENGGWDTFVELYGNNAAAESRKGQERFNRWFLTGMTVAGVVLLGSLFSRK

A short description of series [6]: Plasma stability. The conditions noted are these: Table 6; rat plasma, 1 h. Type of series: in vitro ADME, rat. Here is the method:
Plasma Stability. A 20 μL aliquot of a 10 mM solution in DMSO of the test compound was added to 2.0 mL of heparinized rat plasma (Lampire, P1-150N) to obtain a 100 μM final solution. The mixture was incubated for 1 h at 37.5° C. Aliquots of 100 μL were taken (0, 30 min, 1 h) and diluted with 200 μL of MeOH containing internal standard.

A short description of series [7]: Liver microsomal stability. Type of series: in vitro ADME, rat. The conditions noted are these: Table 6; rat liver microsomes, 1 h. From the text: Liver Microsomal Stability.
The subject of series [8] is human lymphoma RS11846 cell line. Description: Apoptosis, Annexin V-FITC and propidium iodide assay. In kind it is cell-based. The conditions noted are these: for pEC50: Homo sapiens.
Series [9] has as its system H460 human lung cell line. In words: Cell viability, ATP-LITE assay. Type of series: cell-based. The conditions noted are these: Homo sapiens, NCI-H460. The protocol: (§1) The activity of the compounds against human cancer cell lines (PC3ML, H460, H1299, RS11846) were assessed by using the ATP-LITE assay (PerkinElmer). All cells were seeded in either F12 or RPMI1640 medium with 5 mM L-glutamine supplemented with 5% fetal bovine serum (Mediatech Inc.), penicillin and streptomycin (Omega). For maintenance, cells were cultured in 5% FBS. Cells plated into 96 well plates at varying initial densities depending on doubling time. H460 and H1299 plated at 2000 cells/well, A549 and PC3 at 3000 cells/well, and RS118456S at 10,000 cells/well. Compounds were diluted to final concentrations with 0.1% DMSO. Prior to dispensing compounds onto cells, fresh 5% media was placed into wells. Administration of compounds occurred 24 hours after seeding into the fresh media. Cell viability was evaluated using ATP-LITE reagent (PerkinElmer) after 72 hours of treatment. Data were normalized to the DMSO control-treated cells using Prism version 5.01 (Graphpad Software).

Series [10] has as its system B6Bcl-2 transgenic mice. Here is the method: Transgenic mice expressing BCL-2 have been described as the B6 line. The BCL-2 transgene res a minigene version of a t(14;18) translocation in which the human BCL-2 gene is fused with the immunoglobulin heavy-chain (IgH) locus and associated IgH enhancer. The transgene was propagated on the Balb/c background.
After 24 hours, B6BCL2 mice were sacrificed by intraperitoneal injection of lethal dose of Avertin. Spleen was removed and weighed. […] Spleen tissue was fixed in z-FIX for 3 days and rinsed in PBS, and saved for histological analysis of spleen (H&E staining and TUNEL assay).

For series [11], the system named is PC3ML cells. Description: Cell viability, ATP-LITE assay. The conditions noted are these: Homo sapiens, PC3-ML. Type of series: cell-based, human. The protocol: as §1
Series [12] deals with H1299 cell line. Description: Cell viability, ATP-LITE assay. Type of series: cell-based, human. The conditions noted are these: Homo sapiens, NCI-H1299. The protocol: as §1
Series [13] relates to RS11846 cell line. In words: Cell viability, ATP-LITE assay. Type of series: cell-based. The conditions noted are these: Homo sapiens, Table 9; read-out: RS11846 EC50 (ATP-LITE assay). Here is the method:
as §1

Setting [14] is: Table 3, Annexin V-FITC and propidium iodide assay, heading: EC50 RS11846, read-out: EC50 RS11846.
[15] abbreviates: heading: EC50 H460, Table 3, ATP-LITE assay, read-out: EC50 H460.

Each structure is given as a SMILES string. pEC50, pIC50: −log10 of the molar value. Like-named read-outs stand apart in the source and are kept apart here. Some results are limits rather than exact numbers.

For the molecule `CN(C)CC[C@H](CSc1ccccc1)Nc1ccc(S(=O)(=O)NC(=O)c2ccc(N3CCN(Cc4ccccc4-c4ccc(Cl)cc4)CC3)cc2)cc1[N+](=O)[O-]` [ABT-737, reference compound], the “cell activity against BP3 cell lines” value in series [1] was “no cell activity”.
As for `Cc1cc(C)c(CNC(=O)c2c(O)c(O)cc3c(O)c(-c4c(C)cc5c(C(=O)NCc6c(C)cc(C)cc6C)c(O)c(O)cc5c4O)c(C)cc23)c(C)c1` [Compound 8j, 1,1′,6,6′,7,7′-hexahydroxy-3,3′-dimethyl-N^5,N^5′-bis(2,4,6-trimethylbenzyl)-2,2′-binaphthyl-5,5′-dicarboxamide], the results for the pIC50 in series [2], in series [3] (read-out: IC50 FPA Bcl-XL) and in series [4] were 5.96, 6.10 and 6.15, respectively. In series [5] (Table 3), the “1D-^1H NMR” value was “++”.
`Cc1cc2c(C(=O)NCCc3ccccc3)c(O)c(O)cc2c(O)c1-c1c(C)cc2c(C(=O)NCCc3ccccc3)c(O)c(O)cc2c1O` [Compound 8n, 1,1′,6,6′,7,7′-hexahydroxy-3,3′-dimethyl-N^5,N^5′-diphenethyl-2,2′-binaphthyl-5,5′-dicarboxamide]: the “Plasma stability (T = 1 h)” value in [6] is on record as 63%. Moreover, in [7], the “Microsomal Stability (T = 1 h)” value is listed as 60%. In addition, the negative logarithm of the IC50 (pIC50) in series [2] is 6.52; in [3] (read-out: IC50 FPA Bcl-XL), 6.10; in [4] it was 6.82. Moreover, the “1D-^1H NMR” value in [5] (Table 3) is reported as “++”.
Consider `Cc1cc2c(C(=O)NCCc3ccc(Cl)cc3)c(O)c(O)cc2c(O)c1-c1c(C)cc2c(C(=O)NCCc3ccc(Cl)cc3)c(O)c(O)cc2c1O` [Compound 8t, N^5,N^5′-bis(4-chlorophenethyl)-1,1′,6,6′,7,7′-hexahydroxy-3,3′-dimethyl-2,2′-binaphthyl-5,5′-dicarboxamide], for which the values for the pEC50 in [8] (setting [14]), in series [1] and in series [9] (setting [15]) were 5.29, 6.15 and 5.89, respectively. The “1D-^1H NMR” value in series [5] (Table 3) is given as “++”.
Turning to `Cc1cc2c(CC3CCCC3)c(O)c(O)cc2c(O)c1-c1c(C)cc2c(CC3CCCC3)c(O)c(O)cc2c1O` [Compound 12c, 5,5′-bis(cyclopentylmethyl)-3,3′-dimethyl-2,2′-binaphthyl-1,1′,6,6′,7,7′-hexaol], in [6], the “Plasma stability (T = 1 h)” value is recorded as 81%. For the same molecule, the “Microsomal Stability (T = 1 h)” value in series [7] is given as 75%. The signs of toxicity entry in series [10] (72 μmol/kg and even 120 μmol/kg) is listed as “no significant signs of toxicity”. Also, the Tox in series [10] (Bcl-2 transgenic mouse, single ip injection 72 μmol/kg) is listed as 1+. In addition, the negative logarithm of the EC50 (pEC50) was 5.35 in series [8] (Annexin V-FITC and propidium iodide assay, read-out: EC50 RS11846); 5.74 in series [9] (ATP-LITE assay, read-out: EC50 H460); 4.95 in [11] (ATP-LITE assay, read-out: EC50 PC3ML); 4.96 in series [12] (ATP-LITE assay, read-out: EC50 H1299). For the same molecule, in [5] (Table 4), the “1D-^1H NMR” value was “+”.
Consider `Cc1cc2c(C(=O)O)c(O)c(O)cc2c(O)c1-c1c(C)cc2c(C(=O)O)c(O)c(O)cc2c1O` [Compound 14, 1,1′,6,6′,7,7′-hexahydroxy-3,3′-dimethyl-2,2′-binaphthyl-5,5′-dicarboxylic acid], for which the pEC50 in series [8] (setting [14]) is under 4.52; in [1] (heading: EC50 BP3), under 4.52; in series [9] (setting [15]), under 4.52; in [11] (Table 3, ATP-LITE assay, heading: EC50 PC3ML, read-out: EC50 PC3ML), under 4.52; in [12] (heading: EC50 H1299, Table 3, ATP-LITE assay, read-out: EC50 H1299), under 4.52. Also, in [8] (in words), the “induction of apoptosis of the RS11846 cell line” value is reported as “weak or no apoptosis”. In addition, the “1D-^1H NMR” value in [5] (Table 3) was “−”.
`Cc1cc2c(C(=O)CCc3ccc(F)cc3)c(O)c(O)cc2c(O)c1-c1c(C)cc2c(C(=O)CCc3ccc(F)cc3)c(O)c(O)cc2c1O` [Compound XVI, 1,1′-(1,1′,6,6′,7,7′-hexahydroxy-3,3′-dimethyl-2,2′-binaphthyl-5,5′-diyl)bis(3-(4-fluorophenyl)propan-1-one)]: in series [3] (Table 9, read-out: FPA IC50 (BCL-XL)), the pIC50 is 6.85. Further, the negative logarithm of the EC50 (pEC50) in [8] (Table 9, read-out: RS11846 EC50 (Annexin V- and propidium iodide assay)) was 5.51; in series [13] it was 5.64; in [9] (Table 9, read-out: H460 EC50), 5.82; in [11] (Table 9, read-out: PC3ML EC50), 5.55; in series [12] (Table 9, read-out: H1299 EC50) it was 5.66. Further, the “1D ^1H-NMR Binding Assay (BCL-XL)” value in series [5] (Table 9) is on record as “++”.
